The source of these data is US10087199B2, “Super-resolution imaging compositions and methods using same” (Yale University, priority 2014, dated 2018).

In one series the test system is HeLa cells (Golgi label). The series is described as follows: Photostability in sequential 3D spinning disk confocal imaging. Conditions: fixed cells. It is filed as cell-based. On the procedure: The relative photostability of Cer-TCO/SiR-Tz to both BODIPY-Cer and the SiR labeled SNAP-tag Golgi protein Rab6 was compared. The latter is the product of reaction between Rab6-SNAP and a benzyl guanine derivative of SiR (SiR-BG) (Lukinavicius, et al., 2013, Nature Chem. 5:132-139) and thus contains the same near-IR dye as SiR-Tz (FIGS. 5A-5B). HeLa cells were treated with Cer-TCO/SiR-Tz or BODIPY-Cer, while Rab6-SNAP-expressing cells were treated with SiR-BG. The cells were then examined in sequential 3D images using spinning disk confocal microscopy; 3D visualization limited fluorescence fluctuations due to axial sample drift. In each case, 3D “stacks” of 22 optical sections were acquired in series up to 500 times in live or fixed cells (FIGS. 5A-5B). In live cells, even under optimal imaging conditions the BODIPY-Cer fluorescent signal decreased by 50% after fewer than 15 stacks. In striking contrast, the fluorescent signal of cells treated with 2 μM Cer-TCO followed by 2 μM SiR-Tz decreased by only 10% after more than 120 3D stacks had been acquired. Consistent with a lower density of Rab6-SNAP protein in the Golgi, the signal from Rab6-SNAP-SiR decayed at an intermediate rate, decreasing by 50% after about 50 3D stacks. […] After 500 3D stacks the fluorescent signal of Cer-SiR decreased 16% whereas that of Rab6-SNAP-SiR decreased by 84%. […]

In series [1] the test system is HeLa cells stably transfected to express GalNAcT2-GFP (Golgi). Kind of series: Incubation with premixed/preassembled Cer-SiR (Golgi labeling). It is filed as cell-based. The following applies: approximately 2 μM Cer-SiR solution; three protocols A-C. Here is the method:
An approximately 2 μM solution of Cer-SiR was prepared as follows: Stock solutions in DMSO of SiR-Tz and Cer-TCO were added to a PBS buffer supplemented with 1% casein to achieve a final concentration of 2 μM for both components. The solution was thoroughly mixed and incubated for 15 min at room temperature. Before the solution was added to dishes containing cells, Pluronic F-127 was added (0.2% final concentration). The formation of Cer-SiR was confirmed by HPLC.
Protocol A: HeLa cells stably transfected to express GalNAcT2-GFP were cultured on 35 mm glass bottom dishes (Mattek), washed with DMEM (3×) and incubated with the Cer-SiR solution (prepared as described elsewhere herein) for 5 min at 37° C. The dish was washed with DMEM (3×) and incubated at 19.5° C. for 60 min, washed with DMEM (3×) and imaged.
Protocol B: Same as protocol A, but without the wash step before the incubation at 19.5° C.
Protocol C: HeLa cells stably transfected to express GalNAcT2-GFP were cultured on 35 mm glass bottom dishes (Mattek), washed with DMEM (3×) and incubated with the Cer-SiR solution described for 30 min at 4° C. The dish was washed with DMEM (3×) and incubated at 37° C. for 30 min, washed with DMEM (3×) and imaged. This protocol was similar to the protocol used for Golgi labeling with BODIPY-Cer.

Entries after “also recorded” stand apart in the source; their conditions may differ.

With `CCCCCCCCCCCCC/C=C/[C@@H](O)[C@H](CO)NC(=O)CCCCCNC(=O)OC1CCCC2=C(c3ccc(CNC(=O)c4ccc(C(=O)[O-])c(C5=C6C=CC(=[N+](C)C)C=C6[Si](C)(C)c6cc(N(C)C)ccc65)c4)cc3)NN=CC2CC1` (stereo partly drawn) [Cer-SiR, 4-((4-(7-(((6-(((2S,3R,E)-1,3-dihydroxyoctadec-4-en-2-yl)amino)-6-oxohexyl)carbamoyl)oxy)-2,4a,5,6,7,8,9,10-octahydrocycloocta[d]pyridazin-1-yl)benzyl)carbamoyl)-2-(7-(dimethylamino)-3-(dimethyliminio)-5,5-dimethyl-3,5-dihydrodibenzo[b,e]silin-10-yl)benzoate], the “Decrease of fluorescent signal after 500 3D stacks” value with HeLa cells (Golgi label) was 16%. Further, in series [1], the “Golgi labeling with preassembled Cer-SiR” value is reported as “not suitable for Golgi labeling; also recorded: did not lead to Golgi labeling”.
